From US20250163168A1, “NOVEL ANTIBODIES AND ANTIBODY CONJUGATES FOR THE TREATMENT OF METABOLIC DISORDERS” (PFIZER INC., priority 2023, published 2025)
Square brackets hold non-standard residues; d marks the D form. Ends that are not written are not given here. * marks the point of attachment. Aib = CC(C)(N)C(=O)O; BrAc = O=C(CBr)*

Biological target: T1, human GLP1R (Homo sapiens, UniProt P43220)
T1 construct: expressed in transfected cells; host or cells: CHO
Test: GLP1R agonist cAMP assay in CHO cells stably expressing human GLP1R
Assay type: cell-based
Conditions: relative to maximal effect of human GLP-1, read-out: GLP1R agonist mode Emax (%)
Protocol: cAMP assay: The in vitro agonist potency of the peptides disclosed herein was evaluated using a cell-based assay measuring cAMP production. CHO cells stably expressing human GLP1R, or both human GIPR and GLP1R, were incubated with increasing concentrations of agonists for 30 minutes at 37° C. Cells were lysed and cAMP was detected using a homogenous time resolved fluorescence detection kit, as described by the manufacturer (Revvity). […] The EC50 and maximum effect (Emax) values were then determined from the normalized effects and agonist concentrations using a four-parameter logistic equation (GraphPad Prism).

T1 sequence (P43220 24-463): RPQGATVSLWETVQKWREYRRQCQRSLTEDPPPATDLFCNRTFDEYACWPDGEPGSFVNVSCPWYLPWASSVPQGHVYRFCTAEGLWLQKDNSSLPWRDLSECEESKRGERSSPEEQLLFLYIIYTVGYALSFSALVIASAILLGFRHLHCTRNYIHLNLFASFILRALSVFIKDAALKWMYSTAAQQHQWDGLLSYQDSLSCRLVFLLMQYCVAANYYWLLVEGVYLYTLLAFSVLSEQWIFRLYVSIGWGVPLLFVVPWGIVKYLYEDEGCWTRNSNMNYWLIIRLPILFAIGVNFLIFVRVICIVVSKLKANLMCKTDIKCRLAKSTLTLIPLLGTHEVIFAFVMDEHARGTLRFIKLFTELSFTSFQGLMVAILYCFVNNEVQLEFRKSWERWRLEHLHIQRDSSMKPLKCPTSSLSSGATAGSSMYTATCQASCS

Emax [%]	Molecule
109	H[Aib]EGTFTSDYSSYLEEQAAKEFIAWLVKGRGGGGGSGGGGSGGGGSK(BrAc)-NH2 (C-terminus assumed) [compound 151]
107	H[Aib]EGTFTSDYSSYLE[Aib]QAAKEFIAWLVKGRGGGGGSGGGGSGGGGSK(BrAc)-NH2 (C-terminus assumed) [compound 152]
122	CC[C@H](C)[C@H](NC(=O)[C@H](Cc1ccccc1)NC(=O)[C@H](CCC(=O)O)NC(=O)[C@H](CCCCN)NC(=O)[C@H](C)NC(=O)[C@H](C)NC(=O)[C@H](CCC(N)=O)NC(=O)[C@H](CCC(=O)O)NC(=O)[C@H](CCC(=O)O)NC(=O)[C@H](CC(C)C)NC(=O)[C@H](Cc1ccc(O)cc1)NC(=O)[C@H](CO)NC(=O)[C@H](CO)NC(=O)[C@H](Cc1ccc(O)cc1)NC(=O)[C@H](CC(=O)O)NC(=O)[C@H](CO)NC(=O)[C@@H](NC(=O)[C@H](Cc1ccccc1)NC(=O)[C@@H](NC(=O)CNC(=O)[C@H](CCC(=O)O)NC(=O)C(C)(C)NC(=O)[C@@H](N)Cc1c[nH]cn1)[C@@H](C)O)[C@@H](C)O)C(=O)N[C@@H](C)C(=O)N[C@@H](Cc1c[nH]c2ccccc12)C(=O)N[C@@H](CC(C)C)C(=O)N[C@H](C(=O)N[C@@H](CCCCN)C(=O)NCC(=O)NCC(=O)NCC(=O)NCC(=O)NCC(=O)NCC(=O)NCC(=O)N[C@@H](CO)C(=O)NCC(=O)NCC(=O)NCC(=O)NCC(=O)N[C@@H](CO)C(=O)NCC(=O)NCC(=O)NCC(=O)NCC(=O)N[C@@H](CO)C(=O)N[C@@H](CCCCNC(=O)CBr)C(N)=O)C(C)C [compound 154]
109	H[Aib]EGTFTSDVSSYLEEQAAKEFIAWLVKGGGGGGGSGGGGSGGGGSK(BrAc)-NH2 (C-terminus assumed) [compound 153]
